Data published in article PMC11488110 (Theranostics, 2024).
“Also recorded” adds a separate entry of the source.

How the values were obtained:
[1] = Metabolic stability assay in liver microsomes; type: in vitro ADME, dog; settings: 1 μM, 30 min
Description: (§1) The metabolic stability assay was performed by incubation of human and selected animal liver microsomes (dog, rat, and mouse) with the test compound at a final concentration of 1 μM, in the presence of 0.5 mg/ml microsomal protein and NADPH-regeneration system, in a total volume of 100 μL phosphate buffer 100 mM (pH 7.4) at 37 °C. The incubation was started by introducing the NADPH-regeneration system and terminated by adding 40 μL of ice-cold acetonitrile at 0- and 30 min. Precipitated proteins were removed by centrifugation at 10,000 g and 4 °C for 5 min. Aliquots of the supernatant were injected onto an LC-MS/MS system. Incubations terminated prior to addition of the NADPH-regeneration system (time point, 0 min) were used as standards, defined as 100%. Percent of the parent compound remaining was calculated by comparing peak areas.
(§2) Ta b l e S2 . CYP inhibition, microsomal stability, and hERG in hibition of 5a .
(§3) CYP inhibitiona Microsomal stabilityb
(§4) ( % of c ont rol ac ti vit y) (% of remaining compound) hERG inhibitionc (IC50, μ M) […]
(§5) aCytochrome P450 (CYP450) enzyme activity was measured by incubating CYP450 enzyme isotype-specific substrates and liver microsomes in the presence of the test compound (10 μM) for 15 min. […]

[2] = Metabolic stability assay in liver microsomes; type: in vitro ADME, mouse; settings: 1 μM, 30 min
Description: as §1, §2, §3, §4, §5

BV-2 microglial cells = experiment: Cytotoxicity assay (EZ-Cytox) in BV-2 microglia; type: cell-based, mouse; settings: up to 20 μM, 24 h
Description: The in vitro cytotoxicity of 5a was evaluated using the EZ-Cytox assay kit (DoGenBio, South Korea). […] Absorbance was measured at 450 nm, after 1 h of incubation with EZ-Cytox containing water-soluble tetrazolium salt (WST), using a SpectraMax®i3 microplate reader (Molecular Devices).

[3] = tested on: C57BL/6N mice with LPS-induced neuroinflammation; experiment: LPS-induced neuroinflammation mouse model; type: in vivo
[4] = Pharmacokinetics in Sprague-Dawley rats; settings: rat, plasma
[5] = 30 mg/kg p.o. 10 days, LPS 0.3 mg/kg 7 days
[6] = 30 mg/kg/day p.o., LPS 0.3 mg/kg/day i.p.

Which results are given for `Cc1cc(SCc2[se]c(-c3ccc(C(F)(F)F)cc3)nc2C)ccc1OCC(=O)O` [Compound 5a, {2-Methyl-4-[4-methyl-2-(4-trifluoromethyl-phenyl)-selenazol-5-yl-methylsulfanyl]-phenoxy}-acetic acid]?
Microsomal stability, Dog (% of remaining compound) [1]: 91.3 % of remaining compound; Microsomal stability, Mouse (% of remaining compound) [2]: 76.1 % of remaining compound; Viability of BV-2 cells (BV-2 microglial cells): did not affect the viability; also recorded: less cytotoxic than GW501516; CD86 expression in IBA1-positive microglia [3, 5]: significantly reduced the expression; GFAP and IBA1 immunoreactivity, hippocampus and cortex [3, 5]: inhibited; Plasma TNF-α and IL-6 [3, 5]: prevented the LPS-induced increases; Spleen size and weight [3, 5]: reduced the size and weight of spleens; Open-field motor activity (traveled distance, immobility time) [3, 6]: improved motor activity; Open-field time spent in the center [3, 6]: spent more time in the center; Passive avoidance step-through latency [3, 6]: significantly prevented this decrease; Y-maze number of arm entries [3, 6]: increased the number of arm entries; Y-maze spontaneous alternation [3, 6]: higher percentage of spontaneous alternations; AUC ([4]; iv, 5 mg/kg): 7350 ng·h/mL; Vd ([4]; iv, 5 mg/kg): 2.3 ± 0.1 L/kg; clearance ([4]; iv, 5 mg/kg): 10.2 mL/min/kg; half-life ([4]; iv, 5 mg/kg): 138 ± 36 min; bioavailability ([4]; oral, 10 mg/kg): 90.7%; AUC ([4]; po, 10 mg/kg): 13300 ng·h/mL; Cmax ([4]; po, 10 mg/kg): 2740 ng/mL
